In patent US20040248887A1, “Inhibitors of cathepsin S” (IRM LLC, priority 2003, published 2004):

Molecular target: Cathepsin S (Homo sapiens, UniProt P25774)
Experiment: Cathepsin S inhibition, fluorogenic peptide substrate kinetic assay
Format: biochemical
Conditions: Table II; Cathepsin S inhibition constant, pH5.5; read-out: Ki Cat. S
Outline: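 Ki values derive from apparent constants fitted to progress curves, corrected for competition with substrate via [S] and Km. Kinetics were monitored at 380 nm excitation/450 nm emission, after substrate addition (Ac-HPVK-ACC, 50 μM final) to start the reaction.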

Sequence of Cathepsin S (P25774 115-331, species assumed): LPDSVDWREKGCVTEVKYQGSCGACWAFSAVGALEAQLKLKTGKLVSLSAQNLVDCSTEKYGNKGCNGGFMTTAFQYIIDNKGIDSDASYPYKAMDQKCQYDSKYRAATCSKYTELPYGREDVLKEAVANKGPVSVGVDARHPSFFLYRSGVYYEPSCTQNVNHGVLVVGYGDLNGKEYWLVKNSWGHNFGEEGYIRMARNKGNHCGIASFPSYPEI

Ki [nM]	Compound
< 100	C[C@@H](CNc1ccc(OC(F)(F)F)cc1)NC(=O)[C@H](CC1CCCCC1)NC(=O)c1nc(-c2ccc(F)cc2)no1 [Compound 109, 3-(4-Fluoro-phenyl)-[1,2,4]oxadiazole-5-carboxylic acid {2-cyclohexyl-1-(S)-[1-(S)-methyl-2-(4-trifluoromethoxy-phenylamino)-ethylcarbamoyl]-ethyl}-amide]
< 100	CC(=O)Nc1cccc(NC[C@H](C)NC(=O)[C@H](CC2CCCCC2)NC(=O)c2ccc(-c3cccc(F)c3)o2)c1 [Compound 134, 5-(3-Fluoro-phenyl)-furan-2-carboxylic acid {1-(S)-[2-(3-acetylamino-phenylamino)-1-(S)-methyl-ethylcarbamoyl]-2-cyclohexyl-ethyl}-amide]
< 1000	COc1ccc(S(=O)(=O)N[C@@H](CC2CCCCC2)C(=O)NCCN2CCc3cc(F)ccc32)cc1 [Compound 239, (S)-3-Cyclohexyl-N-[2-(5-fluoro-2,3-dihydro-indol-1-yl)-ethyl]-2-(4-methoxy-benzenesulfonylamino)-propionamide]
< 1000	C[C@@H](CNc1ccc(OC(F)(F)F)cc1)NC(=O)[C@H](CC1CCCCC1)NC(=O)c1cc(-c2cccc(F)c2)no1 [Compound 145, 3-(3-Fluoro-phenyl)-isoxazole-5-carboxylic acid {2-cyclohexyl-1-(S)-[1-(S)-methyl-2-(4-trifluoromethoxy-phenylamino)-ethylcarbamoyl]-ethyl}-amide]
< 100	C[C@@H](CN1CCc2cc(F)ccc21)NC(=O)[C@H](CC1CCCCC1)NS(=O)(=O)c1cccc(OC(F)(F)F)c1 [Compound 254, (S,S)-3-Cyclohexyl-N-[2-(5-fluoro-2,3-dihydro-indol-1-yl)-1-methyl-ethyl]-2-(3-trifluoromethoxy-benzenesulfonylamino)-propionamide]
< 1000	Cc1cccc(C(=O)N[C@H](C(=O)NCCN2CCc3cc(F)ccc32)C2CCCCC2)c1 [Compound 193, N-((S)-(2-(5-fluoroindolin-1-yl)ethylcarbamoyl)(cyclohexyl)methyl)-3-methylbenzamide]
< 1000	O=C(N[C@@H](Cc1cccc(Cl)c1)C(=O)NCCN1CCc2cc(F)ccc21)c1ccc(-c2cccc(C(F)(F)F)c2)o1 [Compound 196, N-((S)-1-(2-(5-fluoroindolin-1-yl)ethylcarbamoyl)-2-(3-chlorophenyl)ethyl)-5-(3-(trifluoromethyl)phenyl)furan-2-carboxamide]
< 100	O=C(NCCN1CCc2cc(F)ccc21)[C@H](CC1CCCCC1)NS(=O)(=O)c1ccc(-c2cnco2)cc1 [Compound 246, (S)-3-Cyclohexyl-N-[2-(5-fluoro-2,3-dihydro-indol-1-yl)-ethyl]-2-(4-oxazol-5-yl-benzenesulfonylamino)-propionamide]
< 1000	CC(C)(C)C[C@H](NC(=O)OCc1ccccc1)C(=O)N[C@@H](CC(=O)O)CN1CCc2cc(F)ccc21 [Compound 159, 3-(S)-(2-(S)-Benzyloxycarbonylamino-4,4-dimethyl-pentanoylamino)-4-(5-fluoro-2,3-dihydro-indol-1-yl)-butyric acid]
< 100	C[C@@H](CNc1ccc(OC(F)(F)F)cc1)NC(=O)[C@H](CC1CCCCC1)NS(=O)(=O)c1cccc(OC(F)(F)F)c1 [Compound 182, (S,S)-3-Cyclohexyl-N-[1-methyl-2-(4-trifluoromethoxy-phenylamino)-ethyl]-2-(3-trifluoromethoxy-benzenesulfonylamino)-propionamide]
< 1000	O=C(NCCN1CCc2cc(F)ccc21)[C@H](CC1CCCCC1)NS(=O)(=O)c1ccc(Oc2ccc(F)cc2)cc1 [Compound 236, (S)-3-Cyclohexyl-N-[2-(5-fluoro-2,3-dihydro-indol-1-yl)-ethyl]-2-[4-(4-fluoro-phenoxy)-benzenesulfonylamino]-propionamide]
< 1000	C[C@@H](CNc1cccc(-c2nnn[nH]2)c1)NC(=O)[C@H](CC1CCCCC1)NC(=O)OCc1ccccc1 [Compound 180, (2-Cyclohexyl-1-(S)-{1-(S)-methyl-2-[3-(1H-tetrazol-5-yl)-phenylamino]-ethylcarbamoyl}-ethyl)-carbamic acid benzyl ester]
< 1000	C[C@@H](CNc1ccc(S(=O)(=O)N2CCOCC2)cc1)NC(=O)[C@H](CC1CCCCC1)NC(=O)c1ccc(-c2cccc(F)c2)o1 [Compound 136, 5-(3-Fluoro-phenyl)-furan-2-carboxylic acid (2-cyclohexyl-1-(S)-{1-(S)-methyl-2-[4-(morpholine-4-sulfonyl)-phenylamino]-ethylcarbamoyl}-ethyl)-amide]
< 100	C[C@@H](CNc1ccc(OC(F)(F)F)cc1)NC(=O)[C@H](CC1CCCCC1)NC(=O)O[C@H]1CCOC1 [Compound 189, {2-Cyclohexyl-1-(S)-[1-(S)-methyl-2-(4-trifluoromethoxy-phenylamino)-ethylcarbamoyl]-ethyl}-carbamic acid tetrahydrofuran-3-(S)-yl ester]
< 100	C[C@@H](CN1CCc2cc(F)ccc21)NC(=O)[C@H](CC(C)(C)C)NC(=O)OCc1ccccc1 [Compound 176, {1-(S)-[2-(5-Fluoro-2,3-dihydro-indol-1-yl)-1-(S)-methyl-ethylcarbamoyl]-3,3-dimethyl-butyl}-carbamic acid benzyl ester]
< 100	C[C@@H](CN1CCc2cc(F)ccc21)NC(=O)[C@H](CC1CCCCC1)NS(=O)(=O)c1cccc(Cl)c1 [Compound 259, (S,S)-2-(3-Chloro-benzenesulfonylamino)-3-cyclohexyl-N-[2-(5-fluoro-2,3-dihydro-indol-1-yl)-1-methyl-ethyl]-propionamide]
< 100	O=C(N[C@@H](CC1CCCC1)C(=O)NCCN1CCc2cc(F)ccc21)c1ccc(-c2cccc(C(F)(F)F)c2)o1 [Compound 200, N-((S)-1-(2-(5-fluoroindolin-1-yl)ethylcarbamoyl)-2-cyclopentylethyl)-5-(3-(trifluoromethyl)phenyl)furan-2-carboxamide]
< 100	C[C@@H](CN1CCc2cc(F)ccc21)NC(=O)[C@H](CC(C)(C)C)NC(=O)C1CC1 [Compound 177, Cyclopropanecarboxylic acid {1-(S)-[2-(5-fluoro-2,3-dihydro-indol-1-yl)-1-(S)-methyl-ethylcarbamoyl]-3,3-dimethyl-butyl}-amide]
< 100	O=C(N[C@@H](CC1CCCCC1)C(=O)NCCN1CCc2cc(F)ccc21)c1ccc(Oc2ccccc2)cc1 [Compound 4, N-(S)-{2-cyclohexyl-1-[2-(5-fluoro-2,3-dihydro-indol-1-yl)-ethylcarbamoyl]-ethyl}-4-phenoxy-benzamide]
< 100	COc1cc(C)c(NC[C@H](C)NC(=O)[C@H](CC2CCCCC2)NC(=O)c2ccc(-c3cccc(F)c3)o2)c(C)c1 [Compound 114, 5-(3-Fluoro-phenyl)-furan-2-carboxylic acid {2-cyclohexyl-1-(S)-[2-(4-methoxy-2,6-dimethyl-phenylamino)-1-(S)-methyl-ethylcarbamoyl]-ethyl}-amide]
< 100	COc1cccc(C(=O)N[C@@H](CC(C)(C)C)C(=O)N[C@@H](CO)CN2CCc3cc(F)ccc32)c1 [Compound 156, N-{1-(S)-[2-(5-Fluoro-2,3-dihydro-indol-1-yl)-1-(R)-hydroxymethyl-ethylcarbamoyl]-3,3-dimethyl-butyl}-3-methoxy-benzamide]
